Measurements reported in patent US12527788B2, “Defining RNA-small molecule affinity landscapes enables design of a small molecule inhibitor of an oncogenic non-coding RNA” (University of Florida Research Foundation, Incorporated, priority 2017, dated 2026).

Key:
mature miR-18a = assay: RT-qPCR of mature miRNA levels in DU145 cells; format: cell-based; conditions: Homo sapiens, DU-145, read-out: IC50 for decrease of mature miRNA
Procedure: (§1) In particular, the mature levels of each miRNA in the cluster were studied by RT-qPCR. In agreement with our in vitro Dicer processing studies (FIG. 8A and Figures S-58-S-62), 4 decreases the amount of mature miR-17, -18a, and -20a at low micromolar concentrations with an IC50 of ˜10 µM, but has no effect on miR-19a, -19b, and -92a (FIG. 8B).
(§2) Cell Culture: DU145 cells were cultured in growth medium (Roswell Park Memorial Institute medium (RPMI) supplemented with 10% fetal bovine serum (FBS)) at 37° C. and 5% CO2
(§3) Total RNA was extracted from cells using a Quick-RNA Miniprep Kit (Zymo Research) per the manufacturer's protocol. Approximately 200 ng of total RNA was used in reverse transcription (RT) reactions, which were completed using a miScript II RT kit (Qiagen) per the manufacturer's protocol. RT-qPCR was performed on a 7900HT Fast Real Time PCR System (Applied Biosystem) using power SYBR Green Master Mix (Applied Biosystems). All primer sets were purchased from Integrated DNA Technologies, Inc. (IDT) or Eurofins (Table S1). The expression levels of mature miRNAs were normalized to U6 small nuclear RNA or 18s rRNA.

mature miR-20a = assay: RT-qPCR of mature miRNA levels in DU145 cells; format: cell-based; conditions: Homo sapiens, DU-145, read-out: IC50 for decrease of mature miRNA
Procedure: as §1, §2, §3

mature miR-17 = assay: RT-qPCR of mature miRNA levels in DU145 cells; format: cell-based; conditions: Homo sapiens, DU-145, read-out: IC50 for decrease of mature miRNA
Procedure: as §1, §2, §3

[1] = system: 5′GGU/3′C_A (G bulge of pre-miR-17 and pre-miR-20a); assay: HiT-StARTS Fitness Score, 3×2 ILL selection; format: binding, human; conditions: Zobs normalized to most significant binder
Text: (§4) Additionally, Zobs Rank (and by analogy Zobs) can also be used to estimate the affinities of binding interactions (FIG. 5). Single exponential curves with an asymptote defined a correlation between Zobs and experimentally determined Kd for each compound and its cognate RNA motifs. In all cases, there is excellent correlation with R values ranging from 0.86 to 0.96. These scoring functions can provide a means to rapidly profile small molecules for binding to an “on-” and “off-” targets, as mentioned above. Zobs values were normalized to the most statistically significant RNA binder (100% Fitness) to afford Fitness Scores.
(§5) To test the general applicability of these approaches to other RNA motif libraries, we used 2DCS to select RNA motifs derived from a 3×2 internal loop library (3×2 ILL) that bind to small molecules 1-8. […] That is, selective binders have Zobs>8 (p<0.0001) and relative Zobs defined a scoring function for the selected RNA motif-small molecule interactions.
(§6) These studies identified that compound 4 bound with 100% Fitness to the 5′ G_U/3′CUA (one nucleotide U bulge) that is present in the Dicer processing sites of three microRNAs (miRNAs) in the oncogenic miR-17-92 cluster (contains six mature miRNAs),^43 miR-17, -18a, and -20a. […] The binding affinity of 4 for RNAs containing these three bulges was measured (FIG. 7).
(§7) Calculating Statistical Significance (Zobs) for Selected RNAs: To determine if the difference in frequency for given RNA in the starting library and in the selection was statistically significant, a pooled population comparison (Zobs) was calculated using equations (1) and (2):
(§8) [formula] […] Where n1 is the size of population 1 (number of reads for a selected RNA); n2 is the size of population 2 (number of reads for the same RNA from sequencing of the starting library); p1 is the observed proportion of population 1 (number of reads for a selected RNA divided by the total number of reads); p2 is the observed proportion for population 2 (number of reads for the same RNA divided by the total number of reads in the starting library).

[2] = system: 5′G_U/3′CUA (one nucleotide U bulge); assay: HiT-StARTS Fitness Score, 3×2 ILL selection; format: binding, human; conditions: Zobs normalized to most significant binder
Text: as §4, §5, §6, §7, §8

[3] = system: 5′GAU/3′C_A (A bulge of pre-miR-18a); assay: HiT-StARTS Fitness Score, 3×2 ILL selection; format: binding, human; conditions: Zobs normalized to most significant binder
Text: as §4, §5, §6, §7, §8

[4] = system: motif in the Dicer site of miR-92a; assay: Fluorescence-based binding affinity measurement; set-up: species or system human; conditions: miR-92a Dicer site motif
Procedure: (§9) Mutation of the U bulge to an AU pair (RNAC) eliminates binding (Kd>100 μM).
(§10) Binding Affinity Measurements: An in solution, fluorescence-based assay was used to determine binding affinities by monitoring the change in fluorescence intensity of 1-FL (or 2-FL/3-FL/4-FL) as a function of RNA concentration as described previously.^18 Briefly, the RNA of interest was folded in 1× Folding Buffer (8 mM Na2HPO4, pH 7.0, 185 mM NaCl and 1 mM EDTA) by heating at 60° C. for 5 min followed by slowly cooling to room temperature on the bench top. Then, the FL-conjugated compound was added into the RNA solution to a final concentration of 100 nM. Serial dilutions were then completed using 1× Folding Buffer supplemented with 100 nM FL-conjugated compound. The solutions were incubated at room temperature for 30 min and then transferred to a well of a black 384-well plate. Fluorescence intensity was measured using a Bio-Tek FL×800 plate reader with an excitation wavelength of 485/20 nm and an emission wavelength of 528/20 nm. The change in fluorescence intensity as a function of the concentration of RNA was fit to equation 3:^9 I=I0+0.5 Δε{([FL]0+[RNA]0 +Kd)−(([FL]0+[RNA]0+Kd)^2−4[FL]0[RNA]0)^1/2} (3) where I is the observed fluorescence intensity; I0 is the fluorescence intensity in the absence of RNA; Δε is the difference between the fluorescence intensity in the absence of RNA and in the presence of infinite RNA concentration; [FL]0 is the concentration of compound; [RNA]0 is the concentration of the selected RNA; and Kd is the dissociation constant.

[5] = system: motif in the Dicer site of miR-19b; assay: Fluorescence-based binding affinity measurement; set-up: species or system human; conditions: miR-19b Dicer site motif
Procedure: as §9, §10

[6] = system: motif in the Dicer site of miR-19a; assay: Fluorescence-based binding affinity measurement; set-up: species or system human; conditions: miR-19a Dicer site motif
Procedure: as §9, §10

Compound: CN1CCN(c2ccc(-c3ccc4nc(-c5cc(C(C)(C)C)c(OCCCC(=O)NCCCN=[N+]=[N-])c(C(C)(C)C)c5)[nH]c4c3)cc2)CC1 [Compound 4]
- IC50 (mature miR-18a): ~10 µM
- IC50 (mature miR-20a): ~10 µM
- IC50 (mature miR-17): ~10 µM
- Fitness [1]: 78%
- Fitness [2]: 100%
- Fitness [3]: 91%
- Saturable binding [4]: No saturable binding
- Saturable binding [5]: No saturable binding
- Saturable binding [6]: No saturable binding
